Literature values in patent US20220280453A1, “Pharmaceutical Formulation” (Klaria Pharma Holding AB, priority 2019, published 2022).
Structures can show the parent of a compound that is named as a salt.

Experiments:
[1] = ionized form
[2] = counterions of strong acids; Shannon effective ionic radii

Structure (SMILES): CNC1(c2ccccc2Cl)CCCCC1=O (racemic) [Ketamine, ketamine]
- pH at which most stable in solution [1]: around 4

Structure (SMILES): Br [Bromide (Br^−), Bromide]
- Ionic radius [2]: 1.96 Å

Structure (SMILES): Cl [Chloride (Cl^−), Chloride]
- Ionic radius [2]: 1.81 Å

Structure (SMILES): F [Fluoride (F^−), Fluoride]
- Ionic radius [2]: 1.33 Å

Structure (SMILES): I [Iodide (I^−), Iodide]
- Ionic radius [2]: 2.20 Å

Structure (SMILES): O=[N+]([O-])O [Nitrate (NO3^−), Nitrate]
- Ionic radius [2]: 2.62 Å

Structure (SMILES): O=S(=O)(O)O [Sulfate (SO4^2−), Sulfate]
- Ionic radius [2]: 2.89 Å
